Test results reported in US20260308172A1, “TRICYCLIC COMPOUNDS FOR TREATMENT OF BACTERIAL INFECTIONS” (priority 2023, published 2026).
Converted amounts (≈) assume the structure as drawn.

Assays:
[1] = test system: Escherichia coli ATCC 25922; experiment: Minimal Inhibitory Concentration (MIC) assay, Escherichia coli ATCC 25922; format: cell-based; conditions: ATCC25922, 20 h, read-out: MIC Escherichia coli ATCC25922
Experimental: (§1) The antibacterial activity of the compounds of the present invention was evaluated against the commonly used quality control strain Escherichia coli ATCC 25922 and the rifampin-resistant mutant strain Klebsiella pneumonia ATCC 43816. Both were originally derived from human clinical samples and are available from ATCC (American Type Culture Collection). The in vitro potency of compounds to inhibit Escherichia coli (ATCC 25922) and Klebsiella pneumonia (ATCC 43816) growth was assessed by the MIC (Minimal Inhibitory Concentration) broth dilution method. Specifically compound dilutions were prepared from 10 mM DMSO stock solutions as follows: i) serial 2-fold dilution in 20 μL DMSO were prepared in a master plate (Greiner, Cat No: 651201), ii) 180 μL sterile distilled water was added to each aliquot and iii) 10 μL diluted compounds were transferred into a new assay plate (Costar, 3599).
(§2) Vials of each test microorganisms were maintained frozen in the vapor phase of a liquid nitrogen freezer. Single-use frozen vials of the two strains Escherichia coli ATCC 25922 (KWIKSTIK, 0335K) and Klebsiella pneumonia ATCC 43816, with predetermined CFU/mL, were taken out from the freezer, thawed at room temperature, and diluted in Cation-Adjusted Mueller Hinton Broth (CAMHB) to achieve a final inoculum of 5×10^5 CFU/mL. 90 μL bacteria containing broth was dispensed to the assay plate containing the pre-dispensed compound dilutions and mixed by pipetting 5 times.
(§3) Then the assay plates were incubated for 20 hours at 35° C. in ambient air. Following incubation, the MIC (μg/mL), the lowest concentration of drug that inhibits visible growth of the microorganism was read with the help of a magnification mirror and recorded.

[2] = Human Microsome Stability Assay; format: in vitro ADME; conditions: 1 μM compound, 0.5 mg/mL liver microsomal protein, 1 mM NADPH, pH 7.4, 37° C., 0-30 minutes; for CLint scaled at 1 µM: human, liver microsomes, read-out: Clearance of Human microsome
Experimental: The human microsomal stability assay is used for early assessment of metabolic stability of compounds of present invention in human liver microsomes. Human liver microsomes (Cat. NO.: 452117, Corning, USA) were pre-incubated with test compound for 10 minutes at 37° C. in 100 mM potassium phosphate buffer, pH 7.4. The reactions were initiated by adding NADPH regenerating system. The final incubation mixtures contained 1 μM compound, 0.5 mg/mL liver microsomal protein, 1 mM MgCl2 and 1 mM NADPH in 100 mM potassium phosphate buffer, pH 7.4. After incubation times of 0, 3, 6, 9, 15 and 30 minutes at 37° C., 300 μL of cold acetonitrile (including internal standard) was added to 100 μL incubation mixture to terminate the reaction. Following precipitation and centrifugation, the amount of compound remaining in the samples were determined by LC-MS/MS. Controls of no NADPH regenerating system at zero and 30 minutes were also prepared and analyzed.

[3] = test system: Klebsiella pneumonia ATCC 43816; experiment: Minimal Inhibitory Concentration (MIC) assay, Klebsiella pneumonia ATCC 43816; format: cell-based; conditions: Klebsiella pneumoniae, ATCC43816, 20 h, read-out: MIC Klebsiella pneumoniae ATCC43816
Experimental: as §1, §2, §3

In the case of C[N+]1(CCN)CCC[C@H]1C(=O)N[C@H]1CC[C@H](C(F)(F)c2cc(Cl)nc(N3CCN(S(=O)(=O)c4ccc5c(c4)OC[C@@H]4[C@H](CO)OC(=O)N54)CC3)c2)CC1 (stereo in doubt) [Example 062, (2S)-1-(2-aminoethyl)-N-[4-[[2-chloro-6-[4-[[(3R,3aR)-3-(hydroxymethyl)-1-oxo-3a,4-dihydro-3H-oxazolo[4,3-c][1,4]benzoxazin-7-yl]sulfonyl]piperazin-1-yl]-4-pyridyl]-difluoro-methyl]cyclohexyl]-1-methyl-pyrrolidin-1-ium-2-carboxamide;chloride], the MIC [1] is reported as 0.67 µg/mL, the “Clearance of Human microsome” value [2] is reported as 6.2 mL/min/kg and the MIC [3] is reported as 0.67 µg/mL.
For Cc1cc(C(F)(F)F)nc(N2CCN(S(=O)(=O)c3ccc4c(c3)OC[C@H]3[C@@H](CN5CC(N)C5)OC(=O)N43)CC2)n1 [Example 025, (3R,3aS)-3-[(3-aminoazetidin-1-yl)methyl]-7-[4-[4-methyl-6-(trifluoromethyl)pyrimidin-2-yl]piperazin-1-yl]sulfonyl-3a,4-dihydro-3H-oxazolo[4,3-c][1,4]benzoxazin-1-one], the MIC [1] was 0.91 µg/mL (≈ 1.56 µM), the CLint scaled at 1 µM [2] was 12.2 mL/min/kg and the MIC [3] was 1.82 µg/mL (≈ 3.12 µM).
For Cc1cc(C(F)(F)F)nc(N2CCN(S(=O)(=O)c3ccc4c(c3)OC[C@H]3[C@@H](CN5CC(CN)C5)OC(=O)N43)CC2)n1 [Example 026, (3R,3aS)-3-[[3-(aminomethyl)azetidin-1-yl]methyl]-7-[4-[4-methyl-6-(trifluoromethyl)pyrimidin-2-yl]piperazin-1-yl]sulfonyl-3a,4-dihydro-3H-oxazolo[4,3-c][1,4]benzoxazin-1-one], the MIC [1] was 1.1 µg/mL (≈ 1.84 µM), the CLint scaled at 1 µM [2] was 10.8 mL/min/kg and the MIC [3] was 1.67 µg/mL (≈ 2.79 µM).
O=C1O[C@@H](CO)[C@H]2COc3cc(S(=O)(=O)N4CCN(c5cc(C(F)(F)C6CCNCC6)cc(Cl)n5)CC4)ccc3N12 [Example 028, (3R,3aR)-7-[4-[6-chloro-4-[difluoro(4-piperidyl)methyl]-2-pyridyl]piperazin-1-yl]sulfonyl-3-(hydroxymethyl)-3a,4-dihydro-3H-oxazolo[4,3-c][1,4]benzoxazin-1-one] gave an MIC [1] of 0.57 µg/mL (≈ 0.928 µM), a CLint scaled at 1 µM [2] of 10.5 mL/min/kg and an MIC [3] of 0.57 µg/mL (≈ 0.928 µM).
O=C1O[C@H](CO)[C@@H]2COc3cc(S(=O)(=O)N4CCN(c5cc(C(F)(F)C6CCNCC6)cc(Cl)n5)CC4)ccc3N12 [Example 029, (3S,3aS)-7-[4-[6-chloro-4-[difluoro(4-piperidyl)methyl]-2-pyridyl]piperazin-1-yl]sulfonyl-3-(hydroxymethyl)-3a,4-dihydro-3H-oxazolo[4,3-c][1,4]benzoxazin-1-one] gave an MIC [1] of 1.1 µg/mL (≈ 1.79 µM), a CLint scaled at 1 µM [2] of 11.6 mL/min/kg and an MIC [3] of 1.14 µg/mL (≈ 1.85 µM).
Work on O=C1O[C@@H](CO)[C@H]2COc3cc(S(=O)(=O)N4CCN(c5cc(C(F)(F)C6C7CNCC76)cc(Cl)n5)CC4)ccc3N12 (stereo partly drawn) [Example 034, (3R,3aR)-7-[4-[4-[3-azabicyclo[3.1.0]hexan-6-yl(difluoro)methyl]-6-chloro-2-pyridyl]piperazin-1-yl]sulfonyl-3-(hydroxymethyl)-3a,4-dihydro-3H-oxazolo[4,3-c][1,4]benzoxazin-1-one] yielded an MIC [1] of 0.28 µg/mL (≈ 0.457 µM), a CLint scaled at 1 µM [2] of 12.7 mL/min/kg and an MIC [3] of 0.57 µg/mL (≈ 0.931 µM).
Work on O=C1O[C@@H](CO)[C@H]2COc3cc(S(=O)(=O)N4CCN(c5cc(C(F)(F)C6CNC6)cc(Cl)n5)CC4)ccc3N12 [Example 035, (3R,3aR)-7-[4-[4-[azetidin-3-yl(difluoro)methyl]-6-chloro-2-pyridyl]piperazin-1-yl]sulfonyl-3-(hydroxymethyl)-3a,4-dihydro-3H-oxazolo[4,3-c][1,4]benzoxazin-1-one] yielded an MIC [1] of 2.2 µg/mL (≈ 3.75 µM), a CLint scaled at 1 µM [2] of 10.9 mL/min/kg and an MIC [3] of 2.19 µg/mL (≈ 3.74 µM).
With O=C1O[C@H](CO)[C@H]2COc3cc(S(=O)(=O)N4CCN(c5cc(C(F)(F)C6CCNCC6)cc(Cl)n5)CC4)ccc3N12 [Example 037, (3S,3aR)-7-[4-[6-chloro-4-[difluoro(4-piperidyl)methyl]-2-pyridyl]piperazin-1-yl]sulfonyl-3-(hydroxymethyl)-3a,4-dihydro-3H-oxazolo[4,3-c][1,4]benzoxazin-1-one] the MIC [1] was 1.1 µg/mL (≈ 1.79 µM), the CLint scaled at 1 µM [2] was 10.9 mL/min/kg and the MIC [3] was 1.14 µg/mL (≈ 1.86 µM).
With O=C1O[C@@H](CO)[C@@H]2COc3cc(S(=O)(=O)N4CCN(c5cc(C(F)(F)C6CCNCC6)cc(Cl)n5)CC4)ccc3N12 [Example 038, (3R,3aS)-7-[4-[6-chloro-4-[difluoro(4-piperidyl)methyl]-2-pyridyl]piperazin-1-yl]sulfonyl-3-(hydroxymethyl)-3a,4-dihydro-3H-oxazolo[4,3-c][1,4]benzoxazin-1-one] the MIC [1] was 0.57 µg/mL (≈ 0.928 µM), the CLint scaled at 1 µM [2] was 11.1 mL/min/kg and the MIC [3] was 0.57 µg/mL (≈ 0.928 µM).
With O=C1O[C@@H](CO)[C@H]2COc3cc(S(=O)(=O)N4CCN(c5cc(C(F)(F)C6CC7(CNC7)C6)cc(Cl)n5)CC4)ccc3N12 [Example 039, (3R,3aR)-7-[4-[4-[2-azaspiro[3.3]heptan-6-yl(difluoro)methyl]-6-chloro-2-pyridyl]piperazin-1-yl]sulfonyl-3-(hydroxymethyl)-3a,4-dihydro-3H-oxazolo[4,3-c][1,4]benzoxazin-1-one] the MIC [1] was 0.87 µg/mL (≈ 1.39 µM), the “Clearance of Human microsome” value [2] was 6.2 mL/min/kg and the MIC [3] was 1.16 µg/mL (≈ 1.85 µM).
Molecule NC1CCC(Oc2cc(Cl)nc(N3CCN(S(=O)(=O)c4ccc5c(c4)OC[C@@H]4[C@H](CO)OC(=O)N54)CC3)c2)CC1 (stereo partly drawn) [Example 042, (3R,3aR)-7-[4-[4-(4-aminocyclohexoxy)-6-chloro-2-pyridyl]piperazin-1-yl]sulfonyl-3-(hydroxymethyl)-3a,4-dihydro-3H-oxazolo[4,3-c][1,4]benzoxazin-1-one] has an MIC [1] of 2.2 µg/mL (≈ 3.7 µM), a CLint scaled at 1 µM [2] of 6.7 mL/min/kg and an MIC [3] of 2.21 µg/mL (≈ 3.72 µM).
With NC1CCC(Oc2cc(Cl)nc(N3CCN(S(=O)(=O)c4ccc5c(c4)OCC4C(N)CC(=O)N54)CC3)c2)CC1 (stereo not drawn) [Example 043, 3-Amino-7-[4-[4-(4-aminocyclohexoxy)-6-chloro-2-pyridyl]piperazin-1-yl]sulfonyl-2,3,3a,4-tetrahydropyrrolo[2,1-c][1,4]benzoxazin-1-one] the MIC [1] was 4.3 µg/mL (≈ 7.45 µM), the “Clearance of Human microsome” value [2] was 6.2 mL/min/kg and the MIC [3] was 8.64 µg/mL (≈ 15 µM).
NCCCNC(=O)/C=C/C(F)(F)c1cc(Cl)nc(N2CCN(S(=O)(=O)c3ccc4c(c3)OC[C@@H]3[C@H](CO)OC(=O)N43)CC2)c1 [Example 044, (E)-4-[2-[4-[[(3R,3aR)-3-(hydroxymethyl)-1-oxo-3a,4-dihydro-3H-oxazolo[4,3-c][1,4]benzoxazin-7-yl]sulfonyl]piperazin-1-yl]-6-chloro-4-pyridyl]-N-(3-aminopropyl)-4,4-difluoro-but-2-enamide] showed an MIC [1] of 2.4 µg/mL (≈ 3.65 µM), a CLint scaled at 1 µM [2] of 7 mL/min/kg and an MIC [3] of 2.41 µg/mL (≈ 3.67 µM).
NCCCNC(=O)[C@H]1CC[C@H](C(F)(F)c2cc(Cl)nc(N3CCN(S(=O)(=O)c4ccc5c(c4)OCC4C(N)CC(=O)N54)CC3)c2)CC1 (stereo partly drawn) [Example 045, 4-[[2-[4-[(3-Amino-1-oxo-2,3,3a,4-tetrahydropyrrolo[2,1-c][1,4]benzoxazin-7-yl)sulfonyl]piperazin-1-yl]-6-chloro-4-pyridyl]-difluoro-methyl]-N-(3-aminopropyl)cyclohexanecarboxamide] showed an MIC [1] of 0.63 µg/mL (≈ 0.905 µM), a CLint scaled at 1 µM [2] of 8.9 mL/min/kg and an MIC [3] of 0.63 µg/mL (≈ 0.905 µM).
In the case of NCCCNC(=O)[C@H]1CC[C@H](C(F)(F)c2cc(Cl)nc(N3CCN(S(=O)(=O)c4ccc5c(c4)OC[C@@H]4[C@H](CO)OC(=O)N54)CC3)c2)CC1 [Example 046, 4-[[2-[4-[[(3R,3aR)-3-(hydroxymethyl)-1-oxo-3a,4-dihydro-3H-oxazolo[4,3-c][1,4]benzoxazin-7-yl]sulfonyl]piperazin-1-yl]-6-chloro-4-pyridyl]-difluoro-methyl]-N-(3-aminopropyl)cyclohexanecarboxamide], the MIC [1] is reported as 0.32 µg/mL (≈ 0.449 µM), the “Clearance of Human microsome” value [2] is reported as 6.2 mL/min/kg and the MIC [3] is reported as 0.32 µg/mL (≈ 0.449 µM).
Work on NCCCN(CCCN)C(=O)[C@H]1CC[C@H](C(F)(F)c2cc(Cl)nc(N3CCN(S(=O)(=O)c4ccc5c(c4)OC[C@H]4[C@H](CO)OC(=O)N54)CC3)c2)CC1 [Example 048, 4-[[2-[4-[[(3R,3aS)-3-(hydroxymethyl)-1-oxo-3a,4-dihydro-3H-oxazolo[4,3-c][1,4]benzoxazin-7-yl]sulfonyl]piperazin-1-yl]-6-chloro-4-pyridyl]-difluoro-methyl]-N,N-bis(3-aminopropyl)cyclohexanecarboxamide] yielded an MIC [1] of 0.64 µg/mL (≈ 0.831 µM), a CLint scaled at 1 µM [2] of 12.9 mL/min/kg and an MIC [3] of 0.64 µg/mL (≈ 0.831 µM).
